Laboratory results as given in patent publication US20220402925A1, “COMPOUNDS AND METHODS FOR THE TREATMENT OF CYSTIC FIBROSIS” (Flatley Discovery Lab, LLC, priority 2019, published 2022).

Molecular target: T1, F508del CFTR (Homo sapiens, UniProt P13569, DEL508-508)
T1 construct: Primary CF airway epithelial cells were obtained from the UNC Cystic Fibrosis Tissue Procurement and Cell Culture Core; host or cells: primary CF airway epithelial cells
Assay: Equivalent current assay in primary CF airway epithelial cells (Corrector Activity, NAUC normalized to 3 μM VX809)
Type: cell-based
Details: NAUC as % of positive control (VX-809)
Procedure, shortened: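 Differentiated primary CF airway cells treated basolaterally 24 h at 37° C with compound (0.1% DMSO). Equivalent current recorded after 5 μM benzamil, stimulation with 10 μM forskolin plus 1 μM VX-770 or 3 μM FDL176, and block by 20 μM CFTR-172; vehicle-subtracted AUC normalized to 3 μM VX809; EC50 from sigmoid fit, Hill slope 1.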

T1 sequence (P13569 with tags, fused parts or gaps DEL508-508): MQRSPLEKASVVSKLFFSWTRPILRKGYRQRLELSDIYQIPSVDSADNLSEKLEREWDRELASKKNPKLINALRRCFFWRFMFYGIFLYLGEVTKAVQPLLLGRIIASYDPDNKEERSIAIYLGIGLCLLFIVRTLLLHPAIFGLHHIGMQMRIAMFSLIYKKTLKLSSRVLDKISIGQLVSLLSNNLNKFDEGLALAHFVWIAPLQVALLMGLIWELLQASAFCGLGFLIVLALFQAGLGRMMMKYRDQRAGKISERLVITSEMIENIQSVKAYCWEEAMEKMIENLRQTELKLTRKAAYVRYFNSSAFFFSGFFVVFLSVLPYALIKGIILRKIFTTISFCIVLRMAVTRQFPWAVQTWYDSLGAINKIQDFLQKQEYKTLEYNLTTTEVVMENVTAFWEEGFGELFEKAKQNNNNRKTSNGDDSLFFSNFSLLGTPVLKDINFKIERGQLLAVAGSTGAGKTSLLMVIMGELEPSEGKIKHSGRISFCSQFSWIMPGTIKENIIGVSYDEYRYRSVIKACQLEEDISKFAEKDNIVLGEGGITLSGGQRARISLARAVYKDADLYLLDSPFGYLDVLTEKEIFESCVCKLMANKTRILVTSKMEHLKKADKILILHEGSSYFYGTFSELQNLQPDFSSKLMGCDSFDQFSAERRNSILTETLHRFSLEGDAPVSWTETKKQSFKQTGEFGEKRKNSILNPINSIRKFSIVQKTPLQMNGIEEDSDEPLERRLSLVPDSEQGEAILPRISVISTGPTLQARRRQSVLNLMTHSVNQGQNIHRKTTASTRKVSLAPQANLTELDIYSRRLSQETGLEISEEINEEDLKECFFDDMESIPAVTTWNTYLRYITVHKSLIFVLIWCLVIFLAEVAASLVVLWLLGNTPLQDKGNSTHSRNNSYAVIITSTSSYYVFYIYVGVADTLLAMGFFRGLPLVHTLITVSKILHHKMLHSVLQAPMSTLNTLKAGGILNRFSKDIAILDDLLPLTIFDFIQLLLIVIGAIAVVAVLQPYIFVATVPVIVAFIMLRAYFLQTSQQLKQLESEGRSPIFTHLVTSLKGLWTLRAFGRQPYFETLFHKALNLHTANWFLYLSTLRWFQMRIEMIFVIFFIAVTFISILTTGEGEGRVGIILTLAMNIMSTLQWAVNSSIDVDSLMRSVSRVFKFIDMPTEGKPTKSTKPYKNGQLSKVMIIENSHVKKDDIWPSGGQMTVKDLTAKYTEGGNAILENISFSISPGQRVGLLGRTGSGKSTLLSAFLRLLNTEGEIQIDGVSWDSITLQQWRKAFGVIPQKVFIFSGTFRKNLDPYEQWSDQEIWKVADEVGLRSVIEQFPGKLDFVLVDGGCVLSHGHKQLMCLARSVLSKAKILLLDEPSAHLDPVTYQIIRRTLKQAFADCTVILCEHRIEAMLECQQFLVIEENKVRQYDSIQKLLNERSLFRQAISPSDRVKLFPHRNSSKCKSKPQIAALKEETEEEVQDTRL

| Compound | Corr Activity (NAUC) |
| --- | --- |
| CCN(C(=O)Cn1nc(-c2cc(C#N)cc(OCCO)c2)c2occc2c1=O)c1ccc2c(c1)OC(F)(F)O2 [Example 214] | ++ (NAUC 70-40% of positive control) |
| CN(C(=O)Cn1nc(-c2cc(F)cc(C#N)c2)c2[nH]cnc2c1=O)c1ccc2c(c1)OC(F)(F)O2 [Example 216, 2-(7-(3-cyano-5-fluorophenyl)-4-oxo-1,4-dihydro-5H-imidazo[4,5-d]pyridazin-5-yl)-N-(2,2-difluorobenzo[d][1,3]dioxol-5-yl)-N-methylacetamide] | +++ (NAUC>70% of positive control) |
| Cc1nc2ccc(N(C)C(=O)Cn3nc(-c4cccc(Cl)c4)c4oc(C5CC5)cc4c3=O)cc2o1 [Example 218] | +++ (NAUC>70% of positive control) |
| CN(C(=O)Cn1nc(-c2cccc(Cl)c2)c2oc(C3CC3)cc2c1=O)c1ccc2c(c1)OC(F)(F)O2 [Example 219] | +++ (NAUC>70% of positive control) |
| CN(C(=O)Cn1nc(-c2cccc(C#N)c2)c2oc(C3CC3)cc2c1=O)c1ccc2c(c1)OC(F)(F)O2 [Example 220] | ++ (NAUC 70-40% of positive control) |
| CCN(C(=O)Cn1nc(-c2cc(Cl)cc(Cl)c2)c2oc(C3CC3)cc2c1=O)c1ccc2c(c1)OC(F)(F)O2 [Example 221] | +++ (NAUC>70% of positive control) |
| CCN(C(=O)Cn1nc(-c2cc(F)cc(F)c2)c2oc(C3CC3)cc2c1=O)c1ccc2c(c1)OC(F)(F)O2 [Example 222] | +++ (NAUC>70% of positive control) |
| CCN(C(=O)Cn1nc(-c2cc(F)cc(Cl)c2)c2oc(C3CC3)cc2c1=O)c1ccc2c(c1)OC(F)(F)O2 [Example 223] | +++ (NAUC>70% of positive control) |
| CCN(C(=O)Cn1nc(-c2cc(Cl)cc(C#N)c2)c2oc(C3CC3)cc2c1=O)c1ccc2c(c1)OC(F)(F)O2 [Example 224] | +++ (NAUC>70% of positive control) |
| CCN(C(=O)Cn1nc(-c2cc(F)cc(C#N)c2)c2oc(C3CC3)cc2c1=O)c1ccc2c(c1)OC(F)(F)O2 [Example 225] | +++ (NAUC>70% of positive control) |
| CCN(C(=O)Cn1nc(-c2cc(C#N)cc(OC)c2)c2oc(C3CC3)cc2c1=O)c1ccc2c(c1)OC(F)(F)O2 [Example 226] | +++ (NAUC>70% of positive control) |
| CCN(C(=O)Cn1nc(-c2cc(Cl)cc(OC)c2)c2oc(C3CC3)cc2c1=O)c1ccc2c(c1)OC(F)(F)O2 [Example 227] | +++ (NAUC>70% of positive control) |
| CCN(C(=O)Cn1nc(-c2cc(F)cc(OC)c2)c2oc(C3CC3)cc2c1=O)c1ccc2c(c1)OC(F)(F)O2 [Example 228] | +++ (NAUC>70% of positive control) |
| CCN(C(=O)Cn1nc(-c2cccc(F)c2)c2oc(C3CC3)cc2c1=O)c1ccc2c(c1)OC(F)(F)O2 [Example 229] | +++ (NAUC>70% of positive control) |
| CCN(C(=O)Cn1nc(-c2cccc(Cl)c2)c2oc(C3CC3)cc2c1=O)c1ccc2c(c1)OC(F)(F)O2 [Example 230] | +++ (NAUC>70% of positive control) |
| CCN(C(=O)Cn1nc(-c2cccc(C#N)c2)c2oc(C3CC3)cc2c1=O)c1ccc2c(c1)OC(F)(F)O2 [Example 231] | +++ (NAUC>70% of positive control) |
| Cc1nc2ccc(N(C)C(=O)Cn3nc(-c4cccc(C#N)c4)c4oc(C5CCC5)cc4c3=O)cc2o1 [Example 232] | ++ (NAUC 70-40% of positive control) |
| CN(C(=O)Cn1nc(-c2cccc(C#N)c2)c2oc(C3CCC3)cc2c1=O)c1ccc2c(c1)OC(F)(F)O2 [Example 233] | ++ (NAUC 70-40% of positive control) |
| CCN(C(=O)Cn1nc(-c2cc(Cl)cc(Cl)c2)c2oc(C3CCC3)cc2c1=O)c1ccc2c(c1)OC(F)(F)O2 [Example 234] | ++ (NAUC 70-40% of positive control) |
| CCN(C(=O)Cn1nc(-c2cc(F)cc(F)c2)c2oc(C3CCC3)cc2c1=O)c1ccc2c(c1)OC(F)(F)O2 [Example 235] | ++ (NAUC 70-40% of positive control) |
| CCN(C(=O)Cn1nc(-c2cc(F)cc(Cl)c2)c2oc(C3CCC3)cc2c1=O)c1ccc2c(c1)OC(F)(F)O2 [Example 236] | +++ (NAUC>70% of positive control) |
| CCN(C(=O)Cn1nc(-c2cc(Cl)cc(C#N)c2)c2oc(C3CCC3)cc2c1=O)c1ccc2c(c1)OC(F)(F)O2 [Example 237] | ++ (NAUC 70-40% of positive control) |
| CCN(C(=O)Cn1nc(-c2cc(F)cc(C#N)c2)c2oc(C3CCC3)cc2c1=O)c1ccc2c(c1)OC(F)(F)O2 [Example 238] | ++ (NAUC 70-40% of positive control) |
| CCN(C(=O)Cn1nc(-c2cc(C#N)cc(OC)c2)c2oc(C3CCC3)cc2c1=O)c1ccc2c(c1)OC(F)(F)O2 [Example 239] | + (NAUC<40% of positive control) |
| CCN(C(=O)Cn1nc(-c2cc(Cl)cc(OC)c2)c2oc(C3CCC3)cc2c1=O)c1ccc2c(c1)OC(F)(F)O2 [Example 240] | + (NAUC<40% of positive control) |
| CCN(C(=O)Cn1nc(-c2cc(F)cc(OC)c2)c2oc(C3CCC3)cc2c1=O)c1ccc2c(c1)OC(F)(F)O2 [Example 241] | +++ (NAUC>70% of positive control) |

| Compound | Corr Activity (NAUC) |
| --- | --- |
| CCN(C(=O)Cn1nc(-c2cc(F)cc(C#N)c2)c2[nH]cnc2c1=O)c1ccc2c(c1)OC(F)(F)O2 [Example 242] | +++ (NAUC>70% of positive control) |
| CN(C(=O)Cn1nc(-c2cc(Cl)cc(C#N)c2)c2[nH]cnc2c1=O)c1ccc2c(c1)OC(F)(F)O2 [Example 243] | +++ (NAUC>70% of positive control) |
| CCN(C(=O)Cn1nc(-c2cc(Cl)cc(C#N)c2)c2[nH]cnc2c1=O)c1ccc2c(c1)OC(F)(F)O2 [Example 244] | +++ (NAUC>70% of positive control) |
| CCN(C(=O)Cn1nc(-c2cc(C#N)cc(C(C)(C)C)c2)c2[nH]cnc2c1=O)c1ccc2c(c1)OC(F)(F)O2 [Example 245] | +++ (NAUC>70% of positive control) |
| CCN(C(=O)Cn1nc(-c2cc(C)cc(C#N)c2)c2[nH]cnc2c1=O)c1ccc2c(c1)OC(F)(F)O2 [Example 246] | +++ (NAUC>70% of positive control) |
| Cc1cc(C#N)cc(-c2nn(CC(=O)N(C)c3ccc4c(c3)OC(F)(F)O4)c(=O)c3nc[nH]c23)c1 [Example 247] | +++ (NAUC>70% of positive control) |
| CCN(C(=O)Cn1nc(-c2cc(C)cc(C#N)c2)c2[nH]cnc2c1=O)c1cc2c(cc1C)OC(F)(F)O2 [Example 248] | +++ (NAUC>70% of positive control) |
| Cc1cc(C#N)cc(-c2nn(CC(=O)N(C)c3cc4c(cc3C)OC(F)(F)O4)c(=O)c3nc[nH]c23)c1 [Example 249] | +++ (NAUC>70% of positive control) |
| CCN(C(=O)Cn1nc(-c2cccc(C#N)c2)c2[nH]cnc2c1=O)c1ccc2c(c1F)OC(F)(F)O2 [Example 250] | +++ (NAUC>70% of positive control) |
| CN(C(=O)Cn1nc(-c2cccc(C#N)c2)c2[nH]cnc2c1=O)c1ccc2c(c1F)OC(F)(F)O2 [Example 251] | +++ (NAUC>70% of positive control) |
| CCN(C(=O)Cn1nc(-c2cc(F)cc(CC#N)c2)c2[nH]cnc2c1=O)c1ccc2c(c1)OC(F)(F)O2 [Example 252] | ++ (NAUC 70-40% of positive control) |
| CCN(C(=O)Cn1nc(-c2cc(Cl)cc(Cl)c2)c2[nH]cnc2c1=O)c1ccc2c(c1)OC(F)(F)O2 [Example 254] | +++ (NAUC>70% of positive control) |
| CCN(C(=O)Cn1nc(-c2cc(F)cc(Cl)c2)c2[nH]cnc2c1=O)c1ccc2c(c1)OC(F)(F)O2 [Example 255] | +++ (NAUC>70% of positive control) |
| CCN(C(=O)Cn1nc(-c2cc(Cl)cc(OC)c2)c2[nH]cnc2c1=O)c1ccc2c(c1)OC(F)(F)O2 [Example 257] | +++ (NAUC>70% of positive control) |
| CCN(C(=O)Cn1nc(-c2cc(F)cc(F)c2)c2[nH]cnc2c1=O)c1ccc2c(c1)OC(F)(F)O2 [Example 258] | +++ (NAUC>70% of positive control) |
| CCN(C(=O)Cn1nc(-c2cc(C(F)(F)F)cc(C(F)(F)F)c2)c2[nH]cnc2c1=O)c1ccc2c(c1)OC(F)(F)O2 [Example 260] | + (NAUC<40% of positive control) |
| CCN(C(=O)Cn1nc(-c2cc(F)cc(OC)c2)c2[nH]cnc2c1=O)c1ccc2c(c1)OC(F)(F)O2 [Example 261] | +++ (NAUC>70% of positive control) |
| CCN(C(=O)Cn1nc(-c2cc(C)cc(F)c2)c2[nH]cnc2c1=O)c1ccc2c(c1)OC(F)(F)O2 [Example 262] | +++ (NAUC>70% of positive control) |
| CCN(C(=O)Cn1nc(-c2cc(F)cc(OCC(C)C)c2)c2[nH]cnc2c1=O)c1ccc2c(c1)OC(F)(F)O2 [Example 264] | ++ (NAUC 70-40% of positive control) |
| CCN(C(=O)Cn1nc(-c2cc(OC)cc(C(F)(F)F)c2)c2[nH]cnc2c1=O)c1ccc2c(c1)OC(F)(F)O2 [Example 265] | + (NAUC<40% of positive control) |
| CCN(C(=O)Cn1nc(-c2cc(Cl)cc(C(=O)N(C)C)c2)c2[nH]cnc2c1=O)c1ccc2c(c1)OC(F)(F)O2 [Example 267] | + (NAUC<40% of positive control) |
| CCN(C(=O)Cn1nc(-c2cc(F)cc(C(F)(F)F)c2)c2[nH]cnc2c1=O)c1ccc2c(c1)OC(F)(F)O2 [Example 268] | ++ (NAUC 70-40% of positive control) |
| CCN(C(=O)Cn1nc(-c2cc(C)cc(Cl)c2)c2[nH]cnc2c1=O)c1ccc2c(c1)OC(F)(F)O2 [Example 269] | +++ (NAUC>70% of positive control) |
| CCN(C(=O)Cn1nc(-c2cc(F)cc(OCC(F)(F)F)c2)c2[nH]cnc2c1=O)c1ccc2c(c1)OC(F)(F)O2 [Example 270] | ++ (NAUC 70-40% of positive control) |
| CCN(C(=O)Cn1nc(-c2cc(SC)cc(C(F)(F)F)c2)c2[nH]cnc2c1=O)c1ccc2c(c1)OC(F)(F)O2 [Example 271] | + (NAUC<40% of positive control) |
